Columns and labels:
Caenorhabditis elegans [1] = assay: HTS runs (initial and follow-up): mOD, % Run and visual score (Table 3); format: in vivo; set-up: key to Initial HTS Run Visual Score / Follow-up HTS Run Visual Score: Dead: only stiff L1s (no movement); Dead (L4): worms are dead, but at a later larval stage; majority of worms are L1 (based on size); majority of worms are L2 (based on size); majority of worms are L3 (based on size); majority of worms are L4 (based on size); AD: majority of worms are adult; #AD: 5 adult worms or less; B!: sterile (0-25 progeny); B: low broodsize (25-100 progeny); ˜B: moderate broodsize (100-250 progeny); <: reduced broodsize (250-500 progeny); OK: no effect (˜1000+ progeny)
Experimental: The nematicidal activity of anthelmintic Compositions 48-118 were determined in accordance with the procedure outlined in Example 2.

Caenorhabditis elegans [2] = assay: C. elegans L1 larvae dose-response, 5 day visual viability score (Examples 2 and 7); format: in vivo; set-up: key: Dead: only stiff L1s (no movement); Dead (L4): worms are dead, but at a later larval stage; majority of worms are L1 (based on size); majority of worms are L2 (based on size); majority of worms are L3 (based on size); majority of worms are L4 (based on size); AD: majority of worms are adult; #AD: 5 adult worms or less; B!: sterile (0-25 progeny); B: low broodsize (25-100 progeny); ˜B: moderate broodsize (100-250 progeny); <: reduced broodsize (250-500 progeny); OK: no effect (˜1000+ progeny); conditions: day 5, Table 3; for 5 Day Visual Score V6: 0.3 μM (procedure of Example 2); for 5 Day Visual Score V5: 0.9 μM (procedure of Example 2); for 5 Day Visual Score V4: 2.6 μM (procedure of Example 2); for 5 Day Visual Score V3: 7.8 μM (procedure of Example 2); for 5 Day Visual Score V2: 23.3 μM (procedure of Example 2); for 5 Day Visual Score V1: 70 μM (procedure of Example 2)
Summary of the method: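 Twenty L1 larvae per well in NGM with E. coli HB101 were exposed to six 3-fold dilutions from 70 μM to 0.3 μM, 1.4% DMSO final, at 20° C. Day-5 viability was scored visually under a dissecting microscope by developmental stage, adult count and brood size.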

SMILES	Follow-up HTS Run % Run (Caenorhabditis elegans [1]) [%]	Follow-up HTS Run Visual Score (Caenorhabditis elegans [1])	Follow-up HTS Run mOD (Caenorhabditis elegans [1]) [mOD]	Initial HTS Run % Run (Caenorhabditis elegans [1]) [%]	Initial HTS Run Visual Score (Caenorhabditis elegans [1])	Initial HTS Run mOD (Caenorhabditis elegans [1]) [mOD]	5 Day Visual Score V6 (Caenorhabditis elegans [2])	5 Day Visual Score V5 (Caenorhabditis elegans [2])	5 Day Visual Score V4 (Caenorhabditis elegans [2])	5 Day Visual Score V3 (Caenorhabditis elegans [2])	5 Day Visual Score V2 (Caenorhabditis elegans [2])	5 Day Visual Score V1 (Caenorhabditis elegans [2])
Clc1cccc(Oc2cc(NCc3ccccc3Cl)ncn2)c1 [AKC 376]	115	L2/L3/1AD	155	131	2AD/B	256	OK (no effect (˜1000+ progeny))	OK (no effect (˜1000+ progeny))	OK (no effect (˜1000+ progeny))	OK (no effect (˜1000+ progeny))	OK (no effect (˜1000+ progeny))	L1
NS(=O)(=O)c1cccc(NC(=O)CCN2CCC(c3cccc4[nH]ccc34)CC2)c1 [AKC 377]	109	L4/AD/B!-No P	147	113	3AD/B	220	OK (no effect (˜1000+ progeny))	OK (no effect (˜1000+ progeny))	OK (no effect (˜1000+ progeny))	OK (no effect (˜1000+ progeny))		L1
FC(F)(F)c1cccc(CNc2cc(Oc3cccc(Cl)c3)ncn2)c1 [AKC 379]	107	L4/AD/B!	144	142	Dead/1AD	277	OK (no effect (˜1000+ progeny))	OK (no effect (˜1000+ progeny))	OK (no effect (˜1000+ progeny))	OK (no effect (˜1000+ progeny))		Dead
Fc1ccc(Oc2cc(NCc3cccc(C(F)(F)F)c3)ncn2)cc1 [AKC 380]	102	L4/AD/B!	138	129	Dead	251	OK (no effect (˜1000+ progeny))	OK (no effect (˜1000+ progeny))	OK (no effect (˜1000+ progeny))	OK (no effect (˜1000+ progeny))		L1
Fc1ccccc1Oc1cc(NCc2cccc(C(F)(F)F)c2)ncn1 [AKC 381]	109	L4/AD/B!	147	138	Dead/1AD/B!	270	OK (no effect (˜1000+ progeny))	OK (no effect (˜1000+ progeny))	OK (no effect (˜1000+ progeny))	< (reduced broodsize (250-500 progeny))	˜B (moderate broodsize (100-250 progeny))	L1
FC(F)(F)c1cccc(CNc2cc(Oc3ccc(-c4ccccc4)cc3)ncn2)c1 [AKC 382]	118		159	141	Dead	275	OK (no effect (˜1000+ progeny))	OK (no effect (˜1000+ progeny))	OK (no effect (˜1000+ progeny))	OK (no effect (˜1000+ progeny))		Dead
FC(F)(F)c1cccc(CNc2cc(Oc3ccccc3Cl)ncn2)c1 [AKC 383]	110	L4/AD/B!	149	132	5AD/B	257	OK (no effect (˜1000+ progeny))	OK (no effect (˜1000+ progeny))	OK (no effect (˜1000+ progeny))	OK (no effect (˜1000+ progeny))	˜B (moderate broodsize (100-250 progeny))	L1
CC(C)(C)OC(=O)NCc1ccc(-c2cccc(C(=O)Nc3ccc(S(N)(=O)=O)cc3)c2)cc1 [AKC 390]	110	L4	148	133	B! (sterile (0-25 progeny))	260	OK (no effect (˜1000+ progeny))	OK (no effect (˜1000+ progeny))	OK (no effect (˜1000+ progeny))	OK (no effect (˜1000+ progeny))		L1
C#Cc1cccc(N(CC(=O)Nc2ccc(S(N)(=O)=O)cc2)Cc2cccs2)c1 [AKC 394]	111	Dead	150	135	Dead	264	< (reduced broodsize (250-500 progeny))	OK (no effect (˜1000+ progeny))	OK (no effect (˜1000+ progeny))		Dead	Dead
CCCCCCCCCCCCNc1cc(Oc2ccccc2OC)ncn1 [AKC 398]	93	Dead	126	118	Dead	231	OK (no effect (˜1000+ progeny))	< (reduced broodsize (250-500 progeny))	OK (no effect (˜1000+ progeny))	#AD/˜B	Dead	Dead
CCCCCCCCCCCCNc1cc(Oc2ccccc2Cl)ncn1 [AKC 404]	124	Dead	168	155	Dead	302	OK (no effect (˜1000+ progeny))	OK (no effect (˜1000+ progeny))	OK (no effect (˜1000+ progeny))	OK (no effect (˜1000+ progeny))	Dead	Dead
CCC(NC(=O)Nc1ccc(NC(=O)C2CCCO2)cc1)c1cccc(S(N)(=O)=O)c1 (centres unmarked) [AKC 405]	120	1AD/B!	162	141	4AD/B	274	OK (no effect (˜1000+ progeny))	OK (no effect (˜1000+ progeny))	OK (no effect (˜1000+ progeny))	#AD/˜B	L1	L1
